Experimental data taken from ChEMBL document CHEMBL1201862, “PubChem BioAssay data set” (2004).
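48-hour exposure; five concentrations; linearly interpolated endpoints. GI50: concentration for 50% inhibition of growth.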 The source made the active and inactive calls. No stated cut-off is given here; in the data, active = GI50 up to about 1.1 µM and inactive = higher.

Assays:
Assay in all cases: NCI anticancer screen, dose series, 48 h
[1] = test system: NCI-H23
[2] = test system: SN12C
[3] = test system: K562
[4] = test system: MOLT-4
[5] = test system: A549
[6] = test system: HCT-15
[7] = test system: NCI/ADR-RES
[8] = test system: OVCAR-5
[9] = test system: TK-10
[10] = test system: SK-OV-3
[11] = test system: SR
[12] = test system: Hs-578T
[13] = test system: 786-0
[14] = test system: SNB-78
[15] = test system: HCT-116
[16] = test system: HOP-18
[17] = test system: HL-60
[18] = test system: MDA-N
[19] = test system: Malme-3M
[20] = test system: NCI-H460
[21] = test system: NCI-H522
[22] = test system: SF-268
[23] = test system: OVCAR-4
[24] = test system: SF-539
[25] = test system: MDA-MB-435
[26] = test system: HOP-62
[27] = test system: BT-549
[28] = test system: IGROV-1
[29] = test system: HCC 2998
[30] = test system: RPMI-8226
[31] = test system: SNB-19
[32] = test system: UACC-257
[33] = test system: DU-145
[34] = test system: DLD-1
[35] = test system: DMS-273
[36] = test system: M14
[37] = test system: MDA-MB-231
[38] = test system: A498
[39] = test system: PC-3
[40] = test system: DMS-114
[41] = test system: SK-MEL-5
[42] = test system: SK-MEL-2
[43] = test system: SW-620
[44] = test system: MCF7
[45] = test system: HOP-92
[46] = test system: SNB-75
[47] = test system: U-251
[48] = test system: COLO 205
[49] = test system: HT-29
[50] = test system: UO-31
[51] = test system: ACHN
[52] = test system: SF-295
[53] = test system: KM12
[54] = test system: OVCAR-3
[55] = test system: XF498
[56] = test system: UACC-62
[57] = test system: EKVX
[58] = test system: LOX IMVI
[59] = test system: T47D
[60] = test system: OVCAR-8
[61] = test system: CAKI-1
[62] = test system: RXF 393
[63] = test system: SK-MEL-28
[64] = test system: NCI-H226
[65] = test system: M19-MEL
[66] = test system: CCRF-CEM
[67] = test system: KM-20L2
[68] = test system: LXFL 529

CCN(CC)CC(=O)O[C@]1(CC)C(=O)OCc2c1cc1n(c2=O)Cc2cc3ccccc3nc2-1
GI50 [1]: < 16 nM (active) | GI50 [2]: 20.4 nM (active) | GI50 [3]: 45.1 nM (active) | GI50 [4]: < 10 nM (active) | GI50 [5]: 23.7 nM (active) | GI50 [6]: 170 nM | GI50 [7]: < 10 nM (active) | GI50 [8]: 88.5 nM (active) | GI50 [9]: 1360 nM (inactive) | GI50 [10]: 82.6 nM (active) | GI50 [11]: < 10 nM (active) | GI50 [12]: 3210 nM (inactive) | GI50 [13]: < 10.7 nM (active) | GI50 [14]: 953 nM (active) | GI50 [15]: 30.7 nM (active) | GI50 [16]: 90.8 nM (active) | GI50 [17]: 17.1 nM (active) | GI50 [18]: 95.1 nM (active) | GI50 [19]: 219 nM (active) | GI50 [20]: < 10 nM (active) | GI50 [21]: 24.7 nM (active) | GI50 [22]: < 12 nM (active) | GI50 [23]: 201 nM (active) | GI50 [24]: < 13.9 nM (active) | GI50 [25]: 70.3 nM (active) | GI50 [26]: < 10 nM (active) | GI50 [27]: 41.3 nM (active) | GI50 [28]: 110 nM (active) | GI50 [29]: 149 nM (active) | GI50 [30]: 165 nM (active) | GI50 [31]: < 10 nM (active) | GI50 [32]: 79.8 nM (active) | GI50 [33]: < 10 nM (active) | GI50 [34]: 916 nM (active) | GI50 [35]: < 10 nM (active) | GI50 [36]: < 20.1 nM (active) | GI50 [37]: 3370 nM (inactive) | GI50 [38]: 58.3 nM (active) | GI50 [39]: 54 nM (active) | GI50 [40]: 14.2 nM (active) | GI50 [41]: 31.3 nM (active) | GI50 [42]: 382 nM (active) | GI50 [43]: 94.6 nM (active) | GI50 [44]: < 10 nM (active) | GI50 [45]: 211 nM (active) | GI50 [46]: 26.6 nM (active) | GI50 [47]: < 10 nM (active) | GI50 [48]: 209 nM (active) | GI50 [49]: 95.7 nM (active) | GI50 [50]: 19.6 nM (active) | GI50 [51]: < 10 nM (active) | GI50 [52]: 10.2 nM (active) | GI50 [53]: 149 nM (active) | GI50 [54]: 219 nM (active) | GI50 [55]: 200 nM (active) | GI50 [56]: < 10 nM (active) | GI50 [57]: 256 nM (active) | GI50 [58]: < 11.6 nM (active) | GI50 [59]: < 10 nM (active) | GI50 [60]: 28.5 nM (active) | GI50 [61]: < 10 nM (active) | GI50 [62]: 83.6 nM (active) | GI50 [63]: 179 nM (active) | GI50 [64]: 20.9 nM (active) | GI50 [65]: 90.2 nM (active) | GI50 [66]: < 10 nM (active) | GI50 [67]: 152 nM (active) | GI50 [68]: 404 nM (active)

CCOC(=O)C[C@@]12CCCNC1(C)CCc1ccccc12 (stereo partly specified)
GI50 [2]: > 100000 nM (inactive) | GI50 [3]: > 100000 nM (inactive) | GI50 [4]: > 100000 nM (inactive) | GI50 [5]: > 100000 nM (inactive) | GI50 [6]: > 100000 nM | GI50 [9]: > 100000 nM (inactive) | GI50 [10]: > 100000 nM (inactive) | GI50 [13]: > 100000 nM (inactive) | GI50 [15]: > 100000 nM (inactive) | GI50 [16]: 63200 nM (inactive) | GI50 [17]: > 100000 nM (inactive) | GI50 [19]: > 100000 nM (inactive) | GI50 [20]: > 100000 nM (inactive) | GI50 [24]: > 100000 nM (inactive) | GI50 [26]: > 100000 nM (inactive) | GI50 [28]: > 100000 nM (inactive) | GI50 [30]: > 100000 nM (inactive) | GI50 [31]: > 100000 nM (inactive) | GI50 [32]: > 100000 nM (inactive) | GI50 [34]: > 100000 nM (inactive) | GI50 [35]: > 100000 nM (inactive) | GI50 [36]: > 100000 nM (inactive) | GI50 [40]: > 100000 nM (inactive) | GI50 [41]: > 100000 nM (inactive) | GI50 [42]: > 100000 nM (inactive) | GI50 [43]: > 100000 nM (inactive) | GI50 [47]: > 100000 nM (inactive) | GI50 [48]: > 100000 nM (inactive) | GI50 [49]: > 100000 nM (inactive) | GI50 [50]: > 100000 nM (inactive) | GI50 [51]: > 100000 nM (inactive) | GI50 [52]: 52500 nM (inactive) | GI50 [53]: > 100000 nM (inactive) | GI50 [54]: > 100000 nM (inactive) | GI50 [55]: > 100000 nM (inactive) | GI50 [56]: > 100000 nM (inactive) | GI50 [57]: > 100000 nM (inactive) | GI50 [58]: > 100000 nM (inactive) | GI50 [60]: > 100000 nM (inactive) | GI50 [64]: > 100000 nM (inactive) | GI50 [65]: > 100000 nM (inactive) | GI50 [66]: > 100000 nM (inactive) | GI50 [67]: > 100000 nM (inactive)
